Source: the NIST ThermoML archive (doi:10.1016/j.jct.2012.02.034)
± gives the expanded uncertainty stated by the source.

Test: excess molar enthalpy (molar enthalpy of mixing); xn = mol fraction of the nth substance listed
Settings: 313.15 K, Fluid (supercritical or subcritical phases), Flow calorimetry

CCOC(C)=O [ethyl acetate] + O=C=O
Settings | excess molar enthalpy [kcal/mol]
9000 kPa, x2 = 0.087 | -0.108 ± 0.00598
9000 kPa, x2 = 0.172 | -0.226 ± 0.00717
9000 kPa, x2 = 0.256 | -0.325 ± 0.00837
9000 kPa, x2 = 0.381 | -0.46 ± 0.0108
9000 kPa, x2 = 0.462 | -0.525 ± 0.0122
9000 kPa, x2 = 0.542 | -0.603 ± 0.0136
9000 kPa, x2 = 0.66 | -0.684 ± 0.0155
9000 kPa, x2 = 0.737 | -0.727 ± 0.0163
9000 kPa, x2 = 0.814 | -0.713 ± 0.0163
9000 kPa, x2 = 0.889 | -0.636 ± 0.0155
9000 kPa, x2 = 0.926 | -0.541 ± 0.0184
9000 kPa, x2 = 0.963 | -0.379 ± 0.0196
12000 kPa, x2 = 0.123 | -0.1 ± 0.00359
12000 kPa, x2 = 0.235 | -0.185 ± 0.00502
12000 kPa, x2 = 0.338 | -0.243 ± 0.00598
12000 kPa, x2 = 0.432 | -0.279 ± 0.00669
12000 kPa, x2 = 0.519 | -0.308 ± 0.00717
12000 kPa, x2 = 0.599 | -0.327 ± 0.00717
12000 kPa, x2 = 0.673 | -0.335 ± 0.00741
12000 kPa, x2 = 0.742 | -0.322 ± 0.00789
12000 kPa, x2 = 0.806 | -0.302 ± 0.00717
12000 kPa, x2 = 0.866 | -0.263 ± 0.00717
12000 kPa, x2 = 0.949 | -0.16 ± 0.00574
12000 kPa, x2 = 0.975 | -0.0887 ± 0.0158
15000 kPa, x2 = 0.132 | -0.0865 ± 0.00263
15000 kPa, x2 = 0.25 | -0.151 ± 0.00382
15000 kPa, x2 = 0.356 | -0.208 ± 0.00478
15000 kPa, x2 = 0.452 | -0.242 ± 0.0055
15000 kPa, x2 = 0.539 | -0.274 ± 0.00598
15000 kPa, x2 = 0.618 | -0.285 ± 0.00621
15000 kPa, x2 = 0.724 | -0.275 ± 0.00598
15000 kPa, x2 = 0.788 | -0.245 ± 0.0055
15000 kPa, x2 = 0.818 | -0.227 ± 0.00574
15000 kPa, x2 = 0.875 | -0.182 ± 0.0055
15000 kPa, x2 = 0.927 | -0.124 ± 0.00502
15000 kPa, x2 = 0.953 | -0.0896 ± 0.00335
18000 kPa, x2 = 0.071 | -0.0617 ± 0.00287
18000 kPa, x2 = 0.137 | -0.101 ± 0.00311
18000 kPa, x2 = 0.259 | -0.166 ± 0.00406
18000 kPa, x2 = 0.367 | -0.201 ± 0.00454
18000 kPa, x2 = 0.463 | -0.224 ± 0.00478
18000 kPa, x2 = 0.55 | -0.237 ± 0.00502
18000 kPa, x2 = 0.629 | -0.24 ± 0.00526
18000 kPa, x2 = 0.7 | -0.225 ± 0.00502
18000 kPa, x2 = 0.825 | -0.18 ± 0.0043
18000 kPa, x2 = 0.88 | -0.145 ± 0.0043
18000 kPa, x2 = 0.931 | -0.0989 ± 0.0043
18000 kPa, x2 = 0.955 | -0.0746 ± 0.0043
